Columns and labels:
[1] = system: HbA1c; settings: metformin on its own, in the diabetic; cited from earlier work
[2] = target: T1, human diamine oxidase (Homo sapiens, UniProt P19801); assay: inhibition of human diamine oxidase; settings: qualitative statement
T1 sequence (P19801 20-751): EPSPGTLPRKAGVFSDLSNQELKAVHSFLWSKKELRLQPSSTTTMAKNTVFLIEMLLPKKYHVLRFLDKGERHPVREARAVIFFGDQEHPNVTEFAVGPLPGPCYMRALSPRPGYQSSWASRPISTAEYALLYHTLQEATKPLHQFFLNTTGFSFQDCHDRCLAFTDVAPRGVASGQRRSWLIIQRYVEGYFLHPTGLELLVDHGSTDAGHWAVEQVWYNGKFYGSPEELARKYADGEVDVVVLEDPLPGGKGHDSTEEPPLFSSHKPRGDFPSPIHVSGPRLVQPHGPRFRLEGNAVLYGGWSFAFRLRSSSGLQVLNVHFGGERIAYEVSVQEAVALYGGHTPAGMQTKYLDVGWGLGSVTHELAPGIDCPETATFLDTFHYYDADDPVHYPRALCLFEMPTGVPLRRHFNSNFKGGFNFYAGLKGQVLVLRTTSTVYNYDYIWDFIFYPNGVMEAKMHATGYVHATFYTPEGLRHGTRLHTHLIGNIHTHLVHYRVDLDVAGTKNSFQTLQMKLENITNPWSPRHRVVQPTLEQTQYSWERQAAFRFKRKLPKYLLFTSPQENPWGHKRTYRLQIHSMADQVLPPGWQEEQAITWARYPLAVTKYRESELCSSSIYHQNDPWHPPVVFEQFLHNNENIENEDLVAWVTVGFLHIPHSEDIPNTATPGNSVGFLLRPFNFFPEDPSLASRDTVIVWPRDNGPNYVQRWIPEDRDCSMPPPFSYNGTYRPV

[3] = system: SGLT2 versus SGLT1; settings: Grempler et al. 2012; cited from earlier work
[4] = system: patients with type 2 diabetes mellitus; settings: patients with type 2 diabetes mellitus at high risk for cardiovascular events; Zinman et al. 2015; cited from earlier work

For `CN(C)C(=N)N=C(N)N` [metformin], the “average improvement in the HbA1c value” [1] is listed as 1.0-1.5%.

With `CC(C)(C)NC(=O)c1ccc(OC/C(=C/F)CN)cc1` [Compound 23, (E)-4-(2-(Aminomethyl)-3-fluoroallyloxy)-N-tert-butylbenzamide] the “inhibitory activity against human diamine oxidase” value [2] was “low inhibitory activity”.

For `OC[C@H]1O[C@@H](c2ccc(Cl)c(Cc3ccc(O[C@H]4CCOC4)cc3)c2)[C@H](O)[C@@H](O)[C@@H]1O` [empagliflozin], the “selectivity SGLT2 versus SGLT1” value [3] is listed as “high selectivity” and the “rates of the primary composite cardiovascular outcome and of death from any cause” value [4] is listed as “significantly lower rates”.

Reference: patent US20180104198A1, “Pharmaceutical Composition, Methods for Treating and Uses Thereof” (Boehringer Ingelheim International GmbH, priority 2016, published 2018)
